# According to ChEMBL document CHEMBL4043253, “Synthesis of novel vitamin K derivatives with alkylated phenyl groups introduced at the ω-terminal side chain and evaluation of their neural differentiation activities” (Bioorg Med Chem Lett, 2017):
# Calls of active or inactive are those of the source. No cut-off for these calls is given here.
# Legend:
# [1] = system: PC-12; experiment: Cytotoxicity against rat PC12 cells by MTT assay; format: cell-based
# [2] = system: Neural stem cell; experiment: Induction of neuronal differentiation in C57BL/6J mouse neural stem cells assessed as expression of Map2 at 1 uM administered every 2 days for 4 days by CF594/DAPI immunostaining based fluorescence microscopic microscopic analysis; format: functional
# [3] = system: Neural stem cell; experiment: Induction of neuronal differentiation in C57BL/6J mouse neural stem cells assessed as Map2 mRNA expression at 1 uM measured after 4 days by RT-PCR analysis; format: functional, cell-based
# [4] = system: PC-12; experiment: Induction of neurite elongation in rat PC12 cells assessed as […] mRNA expression at 1 uM; format: functional, cell-based
SMILES,Activity [1],Activity [2],Activity [3],Activity [4]
CC1=C(C/C=C(\C)CC/C=C(\C)CC/C=C(\C)Cc2cccc(C(C)(C)C)c2)C(=O)c2ccccc2C1=O,Non-Toxic,Active,Active,–
CC1=C(C/C=C(\C)CC/C=C(\C)Cc2cccc(C(C)(C)C)c2)C(=O)c2ccccc2C1=O,Non-Toxic,Active,Active,–
CC1=C(C/C=C(\C)CC/C=C(\C)CC/C=C(\C)Cc2ccc(C)c(C)c2)C(=O)c2ccccc2C1=O,Non-Toxic,–,–,–
CC1=C(C/C=C(\C)CC/C=C(\C)CC/C=C(\C)Cc2ccc(C)cc2C)C(=O)c2ccccc2C1=O,Non-Toxic,–,–,–
CC1=C(C/C=C(\C)CC/C=C(\C)Cc2ccc(C)c(C)c2)C(=O)c2ccccc2C1=O,Non-Toxic,inactive,Active,–
CC1=C(C/C=C(\C)CC/C=C(\C)Cc2ccc(C)cc2C)C(=O)c2ccccc2C1=O,Non-Toxic,–,–,–
CC1=C(C/C=C(\C)CC/C=C(\C)Cc2c(C)cc(C)cc2C)C(=O)c2ccccc2C1=O,Non-Toxic,–,–,–
CC(C)=CCC/C(C)=C/CC/C(C)=C/CC/C(C)=C/CC1=C(C)C(=O)c2ccccc2C1=O [MENATETRENONE],Non-Toxic,–,Active,inactive
CC1=C(C/C=C(\C)CC/C=C(\C)CC/C=C(\C)Cc2cccc(C)c2C)C(=O)c2ccccc2C1=O,Non-Toxic,–,–,–
CC1=C(C/C=C(\C)CC/C=C(\C)Cc2cccc(C)c2C)C(=O)c2ccccc2C1=O,Non-Toxic,inactive,Active,–
CC1=C(C/C=C(\C)CC/C=C(\C)CC/C=C(\C)Cc2cc(C)cc(C)c2)C(=O)c2ccccc2C1=O,Non-Toxic,–,–,–
CC1=C(C/C=C(\C)CC/C=C(\C)CC/C=C(\C)Cc2c(C)cc(C)cc2C)C(=O)c2ccccc2C1=O,Non-Toxic,–,–,–
CC1=C(C/C=C(\C)CC/C=C(\C)Cc2cc(C)cc(C)c2)C(=O)c2ccccc2C1=O,Non-Toxic,–,–,–
